Data published in patent US20110039763A1, “TARGETED ANTIMICROBIAL MOIETIES” (C3 JIAN, INC., priority 2009, published 2011).
“Also recorded” adds a separate entry of the source.

Experiments:
microorganisms [1] = assay: Morphology, biofilm and growth disrupting peptides (Table 5); type: cell-based; set-up: key: A: Peptide aggregates; B: Less hyphal formation; Clumps; Diffuse clumps and small polyps; F: Diffuse growth; H: Thin; I: Growth inhibition; Microcolony formation; Rippled; Small polyps; Thick; W: Halo formation on top, microlonies on bottom
Description: In certain embodiments peptides that induce alterations in phenotype or other biological activities can also be used as antimicrobial effector moieties.

microorganisms [2] = assay: Peptide activities: targeting/binding, antimicrobial, growth or phenotype altering (Tables 7, 8); type: cell-based; details: peptides having multiple activities
microorganisms [3] = assay: Targeting peptide binding to target microorganisms (Tables 3, 10, 12); details: microorganism(s) the targeting peptide binds; binding in aqueous buffers varied with peptide solubility, preferably 1x PBS

Substance | Organism, effect (microorganisms [1]; C. jeikeium) | Organism, effect (microorganisms [1]; E. faecalis) | Organism, effect (microorganisms [1]; MRSA) | Organism, effect (microorganisms [1]; S. epidermidis) | Organism, effect (microorganisms [1]; S. pneumoniae) | Activities (microorganisms [2]) | Target(s) (microorganisms [3]) | Organism, effect (microorganisms [1]; C. albicans) | Organism, effect (microorganisms [1]; B. subtilis)
PF-622: peptide having multiple activities (chain 1 TREDVFSVRLINNIVNKQA; chain 2 TREDVFSVRLINNIVNKQA; Peptide with targeting and/or antimicrobial activity) | C. jeikeium (D) | E. faecalis (D) | MRSA (D) | S. epidermidis (D) | S. pneumoniae (M) | G B | S. epidermidis; also recorded: P. aeruginosa; also recorded: C. albicans; also recorded: S. pneumoniae; also recorded: E. faecalis; also recorded: C. jeikeium | – | –
PF-623: peptide having multiple activities (chain 1 VLFAVYLGALDWLFSWLTQKM; chain 2 VLFAVYLGALDWLFSWLTQKM; Peptide with targeting and/or antimicrobial activity) | C. jeikeium (R) | E. faecalis (D) | MRSA (D) | S. epidermidis (M) | S. pneumoniae (D) | G B | S. epidermidis and P. aeruginosa and MRSA and S. pneumoniae and E. faecalis and C. jeikeium | – | –
PF-625: peptide having multiple activities (chain 1 SDSTNNARTRKKARDVTTKDIDK; chain 2 SDSTNNARTRKKARDVTTKDIDK; Peptide with targeting and/or antimicrobial activity) | – | – | – | – | S. pneumoniae (H) | G B | S. epidermidis; also recorded: M. luteus; also recorded: S. pneumoniae; also recorded: C. jeikeium | – | –
PF-626: peptide having multiple activities (chain 1 KYDFDDFEPEEA; chain 2 KYDFDDFEPEEA; Peptide with targeting and/or antimicrobial activity) | – | – | – | – | S. pneumoniae (H) | G B | S. epidermidis and M. luteus and E. coli and C. albicans and MRSA and S. pneumoniae and E. faecalis and C. jeikeium | – | –
PF-627: peptide having multiple activities (chain 1 INDLLSYFTLHEK; chain 2 INDLLSYFTLHEK; Peptide with targeting and/or antimicrobial activity) | – | E. faecalis (H) | MRSA (R) | S. epidermidis (H) | S. pneumoniae (I) | G B | S. epidermidis and P. aeruginosa and MRSA and S. pneumoniae and E. faecalis and C. jeikeium | C. albicans (B) | –
PF-629: peptide having multiple activities (chain 1 GLAAIATVFALY; chain 2 GLAAIATVFALY; Peptide with targeting and/or antimicrobial activity) | C. jeikeium (R) | E. faecalis (R) | MRSA (D) | S. epidermidis (C) | S. pneumoniae (M) | G B | S. epidermidis and P. aeruginosa and C. albicans and MRSA and S. pneumoniae and E. faecalis and C. jeikeium | – | –
PF-631: peptide having multiple activities (chain 1 LIIYFSKTGNTARATRQI; chain 2 LIIYFSKTGNTARATRQI; Peptide with targeting and/or antimicrobial activity) | – | E. faecalis (H) | – | – | S. pneumoniae (I) | G B | S. epidermidis and P. aeruginosa and C. albicans and MRSA and S. pneumoniae and E. faecalis and C. jeikeium | – | –
PF-632: peptide having multiple activities (chain 1 TTIQGVASLEKHGFRYTIIYPTRI; chain 2 TTIQGVASLEKHGFRYTIIYPTRI; Peptide with targeting and/or antimicrobial activity) | C. jeikeium (D) | E. faecalis (D) | MRSA (D) | S. epidermidis (D) | S. pneumoniae (M) | G B | S. epidermidis and P. aeruginosa and C. albicans and MRSA and S. pneumoniae and E. faecalis and C. jeikeium | C. albicans (B) | B. subtilis (H)
PF-636: peptide having multiple activities (chain 1 LVRLA; chain 2 LVRLA; Peptide with targeting and/or antimicrobial activity) | – | E. faecalis (H) | – | – | S. pneumoniae (H) | G B | S. epidermidis and C. albicans and MRSA and S. pneumoniae and E. faecalis | C. albicans (B) | B. subtilis (H)
PF-637: peptide having multiple activities (chain 1 SRIKQDARSVRKYDRIGIFFYSFKSA; chain 2 SRIKQDARSVRKYDRIGIFFYSFKSA; Peptide with targeting and/or antimicrobial activity) | C. jeikeium (D) | E. faecalis (D) | MRSA (M) | S. epidermidis (M) | S. pneumoniae (M) | G B | S. epidermidis and P. aeruginosa and C. albicans and MRSA and S. pneumoniae and E. faecalis and C. jeikeium | – | –
PF-638: peptide having multiple activities (chain 1 TFILPK; chain 2 TFILPK; Peptide with targeting and/or antimicrobial activity) | – | E. faecalis (H) | MRSA (M) | S. epidermidis (R) | S. pneumoniae (I) | G B | S. epidermidis and C. albicans and MRSA and C. jeikeium | – | –
PF-639: peptide having multiple activities (chain 1 QATQIKSWIDRLLVSED; chain 2 QATQIKSWIDRLLVSED; Peptide with targeting and/or antimicrobial activity) | – | E. faecalis (H) | MRSA (R) | – | S. pneumoniae (I) | G B | S. pneumoniae; also recorded: C. jeikeium | C. albicans (B) | –
PF-640: peptide having multiple activities (chain 1 MGDINRNF; chain 2 MGDINRNF; Peptide with targeting and/or antimicrobial activity) | – | E. faecalis (H) | – | – | S. pneumoniae (I) | G B | C. albicans | C. albicans (B) | –
PF-642: peptide having multiple activities (chain 1 FTTPMIGIPAGLLGGSYYLKRREEKGK; chain 2 FTTPMIGIPAGLLGGSYYLKRREEKGK; Peptide with targeting and/or antimicrobial activity) | – | – | MRSA (M) | – | – | G B | M. luteus and MRSA and C. jeikeium | – | –
